Assay results from patent publication US12338236B2, “Benzoisothiazole and benzoisoxazole compounds for the treatment of mental disorders” (SUVEN LIFE SCIENCES LIMITED, priority 2022, dated 2025).
Counter-ions that a name gives are not always drawn.

What was measured:
DOPA levels in striatum = test: Reserpine-induced DOPA accumulation; format: in vivo, Male Wistar rats; details: rats, s.c.
Method: Example-53: Reserpine-Induced DOPA Accumulation
Male Wistar rats were pretreated with reserpine (5 mg/kg, s.c.) approximately 18 h before sacrifice and were thereafter fasted until sacrifice. Example-2 (3 mg/kg, p.o.) and (3-(3-hydroxyphenyl)-N-n-propylpiperidine (3-PPP); 30 mg/kg, s.c.) were administered 1.16 h and 1 h, respectively before sacrifice. Haloperidol (0.5 mg/kg, s.c.) was used as a positive control and was dosed 10 min prior to 3-PPP in a separate group of animals. 3-Hydroxybenzylhydrazine dihydrochloride (NSD-1015; 100 mg/kg, s.c.) was then administered 0.5 h before sacrifice. Each rat was sacrificed, brain was removed and then striatum was isolated. The tissue was immediately weighed and homogenized in 0.1 N perchloric acid by means of an ultrasonic disruptor while being cooled in ice. The homogenate was centrifuged at 4° C. at 20,000 g for 15 min. The supernatant was assayed for dihydroxyphenylalanine (DOPA) levels using HPLC-ECD.

human 5-HT2A receptor = biological target: T1, human 5-HT2A receptor (Homo sapiens, UniProt P28223); test: Determination of Ki values at 5-HT2A receptor ([3H]-Ketanserine radioligand binding); details: h5-HT2A, CHO-K1, [3H]-Ketanserine 1.25 nM
T1 construct: expressed in transfected cells; host or cells: CHO-K1
Method: Example-44: Determination of Ki Values at 5-HT2A Receptor
• Receptor source: Recombinant mammalian cells (CHO-K1) • Radioligand: [^3H]-Ketanserine (41.9 Ci/mmol) • Final ligand concentration: 1.25 nM • Non-specific determinant: 0.1 mM 1-Napthyl piperazine (1-NP) • Reference compound: 1-Napthyl piperazine (1-NP) • Positive control: 1-Napthyl piperazine (1-NP) Incubation conditions: Reactions were carried out in buffer with pH 7.4 containing 50 mM Tris-HCl, 4 mM CaCl2, 0.1% Ascorbic acid for 1 h at RT. The reaction was terminated by rapid vacuum filtration onto the glass fiber filters. Radioactivity trapped onto the filters was determined and compared to the control values in order to ascertain any interactions of the test compound(s) with cloned human 5-HT2A receptor binding site.

human 5-HT1A receptor = biological target: T2, human 5-HT1A receptor (Homo sapiens, UniProt P08908); test: Determination of Ki values at 5-HT1A receptor ([3H]-8-Hydroxy DPAT radioligand binding); details: h5-HT1A, HEK293-EBNA, [3H]-8-Hydroxy DPAT 0.8 nM
T2 construct: expressed in transfected cells; host or cells: HEK293-EBNA
T2 sequence (P08908 1-422): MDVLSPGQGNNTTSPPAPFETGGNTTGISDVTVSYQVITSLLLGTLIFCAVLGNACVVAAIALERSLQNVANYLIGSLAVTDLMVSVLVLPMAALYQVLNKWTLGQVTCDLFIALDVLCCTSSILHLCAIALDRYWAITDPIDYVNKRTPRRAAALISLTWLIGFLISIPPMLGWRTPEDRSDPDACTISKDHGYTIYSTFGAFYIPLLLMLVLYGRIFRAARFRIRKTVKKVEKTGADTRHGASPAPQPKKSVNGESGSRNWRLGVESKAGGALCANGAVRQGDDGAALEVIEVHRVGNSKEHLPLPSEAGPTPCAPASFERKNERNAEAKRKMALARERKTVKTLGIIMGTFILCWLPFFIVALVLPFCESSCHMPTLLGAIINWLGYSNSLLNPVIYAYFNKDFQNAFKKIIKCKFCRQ
Method: Example-43: Determination of Ki Values at 5-HT1A Receptor
• Receptor source: Recombinant mammalian cells (HEK293-EBNA) • Radioligand: [^3H]-8-Hydroxy DPAT (200 Ci/mmol) • Final ligand concentration: 0.8 nM • Non-specific determinant: 0.1 mM U92016A • Reference compound: U92016A • Positive control: U92016A Incubation conditions: Reactions were carried out in buffer with pH 7.4 containing 50 mM Tris-HCl, 0.5 mM EDTA, 10 mM MgSO4, 0.1% Ascorbic acid for 2 h at RT. The reaction was terminated by rapid vacuum filtration onto the glass fiber filters. Radioactivity trapped onto the filters was determined and compared to the control values in order to ascertain any interactions of the test compound(s) with cloned human 5-HT1A receptor binding site.

human SERT = biological target: T3, human SERT (Homo sapiens, UniProt P31645); test: Determination of Ki values at SERT receptor ([3H]-Citalopram SPA binding); details: hSERT, HEK293, [3H]-Citalopram 2 nM
T3 construct: expressed in transfected cells; host or cells: HEK293
Method: Example-46: Determination of Ki Values at SERT Receptor
• Receptor source: Recombinant mammalian cells (HEK293) • Radioligand: [^3H]-Citalopram (80.8 Ci/mmol) • Final ligand concentration: 2 nM • Non-specific determinant: 0.1 mM Venlafaxine • Reference compound: Venlafaxine • Positive control: Venlafaxine Incubation conditions: Reactions were carried out in buffer with pH 7.4 containing 50 mM Tris-HCl, 150 mM NaCl, 5 mM KCl and Scintillation proximity assay (SPA) beads (0.1 mg/well) for 3 h at RT. Radioactivity proximal to SPA beads was determined by scintillation proximity assay and compared to the control values in order to ascertain any interactions of the test compound(s) with cloned human SERT receptor binding site.

[1] = biological target: T4, human adrenergic α1B receptor (Homo sapiens, UniProt P35368); test: Determination of Ki values at adrenergic α1B receptor ([3H]-Prazosin radioligand binding); details: hα1B, Chem-1 cells, [3H]-Prazosin 1 nM; read-out: Ki Alpha1B
T4 construct: expressed in transfected cells; host or cells: Chem-1
T4 sequence (P35368 1-520): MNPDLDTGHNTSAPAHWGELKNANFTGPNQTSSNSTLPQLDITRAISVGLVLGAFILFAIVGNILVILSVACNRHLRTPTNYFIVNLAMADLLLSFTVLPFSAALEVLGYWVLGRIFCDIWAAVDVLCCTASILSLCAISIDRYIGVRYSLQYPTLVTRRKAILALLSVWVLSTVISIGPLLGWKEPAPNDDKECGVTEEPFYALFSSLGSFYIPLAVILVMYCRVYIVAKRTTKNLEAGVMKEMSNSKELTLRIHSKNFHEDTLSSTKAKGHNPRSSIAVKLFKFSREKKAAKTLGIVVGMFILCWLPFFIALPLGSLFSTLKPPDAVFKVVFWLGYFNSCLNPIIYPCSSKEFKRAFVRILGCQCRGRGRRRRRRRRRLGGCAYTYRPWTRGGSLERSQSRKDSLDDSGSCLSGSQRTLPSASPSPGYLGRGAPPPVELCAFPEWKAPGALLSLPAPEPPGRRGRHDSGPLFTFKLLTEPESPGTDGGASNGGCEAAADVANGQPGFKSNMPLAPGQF
Method: Example-47: Determination of Ki Values at Adrenergic α1B Receptor
• Receptor source: Recombinant mammalian cells (Chem-1) • Radioligand: [^3H]-Prazosin (77.4 Ci/mmol) • Final ligand concentration: 1 nM • Non-specific determinant: 0.1 mM Prazosin • Reference compound: Prazosin • Positive control: Prazosin Incubation conditions: Reactions were carried out in buffer with pH 7.4 containing 67 mM Tris-HCl, 67 μM EDTA, […] for 1 h at RT. The reaction was terminated by rapid vacuum filtration onto the glass fiber filters. Radioactivity trapped onto the filters was determined and compared to the control values in order to ascertain any interactions of the test compound(s) with cloned human adrenergic α1B receptor binding site.

[2] = biological target: T5, human histamine H1 receptor (Homo sapiens, UniProt P35367); test: Determination of Ki values at histamine H1 receptor ([3H]-Pyrilamine SPA binding); details: hH1, CHO-K1, [3H]-Pyrilamine 2 nM
T5 construct: expressed in transfected cells; host or cells: CHO-K1
Method: Example-48: Determination of Ki values at Histamine H1 receptor
• Receptor source: Recombinant mammalian cells (CHO-K1) • Radioligand: [^3H]-Pyrilamine (20.7 Ci/mmol) • Final ligand concentration: 2 nM • Non-specific determinant: 0.1 mM Pyrilamine • Reference compound: Pyrilamine • Positive control: Pyrilamine Incubation conditions: Reactions were carried out in buffer with pH 7.4 containing 67 mM Tris-HCl and SPA beads (0.1 mg/well) for 1 h at 37° C. Radioactivity proximal to SPA beads was determined by scintillation proximity assay and compared to the control values in order to ascertain any interactions of the test compound(s) with cloned human histamine H1 receptor binding site.

[3] = biological target: T6, human dopamine D2s receptor (Homo sapiens, UniProt P14416); test: Determination of Ki values at D2S receptor ([3H]-Raclopride radioligand binding); details: hD2 (D2S), CHO-K1, [3H]-Raclopride 4 nM; read-out: Ki D2
T6 construct: expressed in transfected cells; host or cells: CHO-K1
Method: Example-45: Determination of Ki Values at D2S Receptor
• Receptor source: Recombinant mammalian cells (CHO-K1) • Radioligand: [^3H]-Raclopride (80.8 Ci/mmol) • Final ligand concentration: 4 nM • Non-specific determinant: 0.1 mM Haloperidol • Reference compound: Haloperidol • Positive control: Haloperidol Incubation conditions: Reactions were carried out in buffer with pH 7.4 containing 50 mM Tris-HCl, 120 mM NaCl, 5 mM KCl, 5 mM MgCl2, 1 mM EDTA for 2 h at RT. The reaction was terminated by rapid vacuum filtration onto the glass fiber filters. Radioactivity trapped onto the filters was determined and compared to the control values in order to ascertain any interactions of the test compound(s) with cloned human dopamine D2s receptor binding site.

T5 sequence (P35367 whole entry): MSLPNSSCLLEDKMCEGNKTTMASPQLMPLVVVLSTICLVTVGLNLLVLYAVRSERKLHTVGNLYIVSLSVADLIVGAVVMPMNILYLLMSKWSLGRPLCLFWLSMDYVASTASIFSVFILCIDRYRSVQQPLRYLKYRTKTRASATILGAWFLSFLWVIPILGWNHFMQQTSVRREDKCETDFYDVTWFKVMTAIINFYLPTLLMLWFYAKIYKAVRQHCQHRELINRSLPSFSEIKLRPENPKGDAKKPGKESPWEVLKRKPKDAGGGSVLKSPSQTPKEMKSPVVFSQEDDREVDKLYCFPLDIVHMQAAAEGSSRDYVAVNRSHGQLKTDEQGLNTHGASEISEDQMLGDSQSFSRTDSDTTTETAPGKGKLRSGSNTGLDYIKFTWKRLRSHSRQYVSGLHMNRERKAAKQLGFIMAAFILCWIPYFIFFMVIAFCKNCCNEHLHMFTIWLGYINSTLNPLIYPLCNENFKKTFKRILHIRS
T3 sequence (P31645 whole entry): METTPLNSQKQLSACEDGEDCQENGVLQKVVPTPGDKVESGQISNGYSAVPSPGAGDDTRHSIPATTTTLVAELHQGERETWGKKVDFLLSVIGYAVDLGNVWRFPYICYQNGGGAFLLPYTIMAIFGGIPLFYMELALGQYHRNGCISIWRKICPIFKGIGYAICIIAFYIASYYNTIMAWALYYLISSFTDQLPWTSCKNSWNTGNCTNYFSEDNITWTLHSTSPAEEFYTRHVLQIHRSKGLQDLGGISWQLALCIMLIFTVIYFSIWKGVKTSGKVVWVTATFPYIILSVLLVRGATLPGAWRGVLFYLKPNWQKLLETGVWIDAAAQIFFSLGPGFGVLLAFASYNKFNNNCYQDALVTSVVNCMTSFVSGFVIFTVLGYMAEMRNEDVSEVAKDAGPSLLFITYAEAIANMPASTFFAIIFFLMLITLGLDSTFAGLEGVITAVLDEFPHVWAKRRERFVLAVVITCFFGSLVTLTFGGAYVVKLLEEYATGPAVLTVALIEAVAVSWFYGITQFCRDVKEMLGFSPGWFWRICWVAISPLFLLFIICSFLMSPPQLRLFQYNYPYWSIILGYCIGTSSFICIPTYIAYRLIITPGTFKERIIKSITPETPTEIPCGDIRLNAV
T1 sequence (P28223 whole entry): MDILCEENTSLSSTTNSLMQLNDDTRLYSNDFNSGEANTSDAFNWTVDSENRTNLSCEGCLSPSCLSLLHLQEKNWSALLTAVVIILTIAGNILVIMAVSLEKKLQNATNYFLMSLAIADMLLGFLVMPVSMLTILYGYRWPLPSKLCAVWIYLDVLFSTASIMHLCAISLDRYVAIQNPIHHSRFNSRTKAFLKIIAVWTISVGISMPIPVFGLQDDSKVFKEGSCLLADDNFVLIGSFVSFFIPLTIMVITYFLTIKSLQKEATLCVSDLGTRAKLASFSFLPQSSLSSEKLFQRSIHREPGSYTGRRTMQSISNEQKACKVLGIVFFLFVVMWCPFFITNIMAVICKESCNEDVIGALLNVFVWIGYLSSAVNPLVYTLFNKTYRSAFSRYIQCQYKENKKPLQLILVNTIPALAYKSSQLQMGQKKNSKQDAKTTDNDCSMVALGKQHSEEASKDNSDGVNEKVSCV
T6 sequence (P14416 1-414 isoform P14416-2): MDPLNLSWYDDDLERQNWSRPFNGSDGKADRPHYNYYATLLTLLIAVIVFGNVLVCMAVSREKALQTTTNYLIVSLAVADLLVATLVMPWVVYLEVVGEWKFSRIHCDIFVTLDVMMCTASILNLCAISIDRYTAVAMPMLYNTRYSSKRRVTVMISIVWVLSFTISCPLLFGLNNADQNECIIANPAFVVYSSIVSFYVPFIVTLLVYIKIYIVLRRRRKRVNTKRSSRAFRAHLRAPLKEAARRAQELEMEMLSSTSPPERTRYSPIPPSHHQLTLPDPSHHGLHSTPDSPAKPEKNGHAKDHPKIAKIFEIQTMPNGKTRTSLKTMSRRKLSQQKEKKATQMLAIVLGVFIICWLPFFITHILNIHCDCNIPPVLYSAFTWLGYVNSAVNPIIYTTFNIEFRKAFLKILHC

Ki (human 5-HT2A receptor) | Ki (human 5-HT1A receptor) | Ki (human SERT) | Ki [1] | Ki [2] | Ki [3] | Compound | Reversal in reserpine induced DOPA accumulation (DOPA levels in striatum; 30 mg/kg, 1 h before sacrifice, striatum) | Increase in DOPA levels in striatum (DOPA levels in striatum; reserpine 5 mg/kg, about 18 h before sacrifice)
 |  |  |  |  |  | CCCN1CCCC(c2cccc(O)c2)C1 (centres unmarked) [Example 3-PPP, 3-(3-hydroxyphenyl)-N-n-propylpiperidine] | 77% | 
0.5 nM | 0.4 nM | 217 nM | 44.1 nM | 4.2 nM | 1.5 nM | Cc1nc(-c2csc(OCCCN3CCN(c4nsc5ccccc45)CC3)n2)no1 [compound 10, 3-(4-{3-[4-(5-Methyl-[1,2,4]oxadiazol-3-yl)-thiazol-2-yloxy]-propyl}-piperazin-1-yl)-benzo[d]isothiazole oxalate] |  | 
0.01 nM | 0.3 nM | 18.8 nM | 5.7 nM | 1.8 nM | 0.4 nM | c1ccc2c(N3CCN(CCCOc4ccc(-c5cnco5)cn4)CC3)nsc2c1 [compound 22, 3-{4-[3-(5-Oxazol-5-yl-pyridin-2-yloxy)-propyl]-piperazin-1-yl}-benzo[d]isothiazole oxalate] |  | 
0.3 nM | 1.8 nM | 1670 nM | 1.5 nM | 3.5 nM | 0.7 nM | Cc1nnc(-c2csc(OCCCN3CCC(c4noc5cc(F)ccc45)CC3)n2)o1 [compound 24, 6-Fluoro-3-(1-{3-[4-(5-methyl-[1,3,4]oxadiazol-2-yl)-thiazol-2-yloxy]-propyl}-piperidin-4-yl)-benzo[d]isoxazole oxalate] |  | 
 |  |  |  |  |  | COC(=O)[C@H]1[C@H]2C[C@@H]3c4[nH]c5cc(OC)ccc5c4CCN3C[C@H]2C[C@@H](OC(=O)c2cc(OC)c(OC)c(OC)c2)[C@@H]1OC [reserpine] |  | about 194%

Compound | Ki (human 5-HT2A receptor) | Ki (human 5-HT1A receptor) | Ki (human SERT) | Ki [1] | Ki [2] | Ki [3] | Reversal in reserpine induced DOPA accumulation (DOPA levels in striatum; 30 mg/kg, 1 h before sacrifice, striatum) | Increase in DOPA levels in striatum (DOPA levels in striatum; reserpine 5 mg/kg, about 18 h before sacrifice)
Cc1nnc(-c2csc(OCCCN3CCN(c4nsc5ccccc45)CC3)n2)o1 [Example-1, 3-(4-{3-[4-(5-Methyl-[1,3,4]oxadiazol-2-yl)-thiazol-2-yloxy]-propyl}-piperazin-1-yl)-benzo[d]isothiazole] | 0.35 nM | 0.1 nM | 54.3 nM | 12.5 nM | 8.8 nM | 0.51 nM |  | 
